Test results from patent publication US8440646B1 (priority 2006, dated 2013).
In brackets after ≈: the same amount, converted by molar mass.

Columns and labels:
E. faecium 494 = assay: microbe, parasite or virus in culture; assay type: cell-based; details: Enterococcus faecium
S. pneumoniae 157E [1] = assay: animal or person; assay type: in vivo, mice; details: Streptococcus pneumoniae, 157E, in Mus musculus, 48 h, read-out: % survival; for responders at 5 mg/kg: sc
S. pneumoniae 700905 = assay: microbe, parasite or virus in culture; assay type: cell-based; details: Streptococcus pneumoniae
E. faecalis 29212 = assay: microbe, parasite or virus in culture; assay type: cell-based; details: Enterococcus faecalis
S. aureus MRSA5 = assay: microbe, parasite or virus in culture; assay type: cell-based; details: Staphylococcus aureus
S. aureus RN450 = assay: microbe, parasite or virus in culture; assay type: cell-based; details: Staphylococcus aureus
S. aureus RN4250 = assay: microbe, parasite or virus in culture; assay type: cell-based; details: Staphylococcus aureus, RN4250
[2] = test system: Peptidoglycan synthesis of S. aureus RN450; assay: microbe, parasite or virus in culture; assay type: cell-based; details: Staphylococcus aureus
[3] = test system: Protein synthesis of S. aureus RN450; assay: microbe, parasite or virus in culture; assay type: cell-based
S. pneumoniae 157E [4] = assay: microbe, parasite or virus in culture; assay type: cell-based; details: Streptococcus pneumoniae

SMILES	MIC (E. faecium 494) [µg/mL]	MIC (S. pneumoniae 700905) [µg/mL]	MIC (E. faecalis 29212) [µg/mL]	MIC (S. aureus MRSA5) [µg/mL]	MIC (S. aureus RN450) [µg/mL]	MIC (S. aureus RN4250) [µg/mL]	also measured
CO/N=C(\C)c1cc(CNCC(C)(C)C)c(O)c2c1C[C@H]1C[C@H]3[C@H](N(C)C)C(O)=C(C(N)=O)C(=O)[C@@]3(O)C(O)=C1C2=O [E]	1 (≈ 1.71 µM)	0.06 (≈ 0.103 µM)	0.25 (≈ 0.428 µM)	0.25 (≈ 0.428 µM)	–	–	responders at 10 mg/kg (S. pneumoniae 157E [1]; po): 0%; responders at 5 mg/kg (S. pneumoniae 157E [1]): 40%
CN(C)[C@@H]1C(O)=C(C(N)=O)C(=O)[C@@]2(O)C(O)=C3C(=O)c4c(O)ccc(B5OC(C)(C)C(C)(C)O5)c4C[C@H]3C[C@@H]12 [F]	1 (≈ 1.85 µM)	0.25 (≈ 0.463 µM)	0.5 (≈ 0.925 µM)	0.5 (≈ 0.925 µM)	–	–	responders at 50 mg/kg (S. pneumoniae 157E [1]; po): 100%; responders at 5 mg/kg (S. pneumoniae 157E [1]): 100%
C=CCN(C)Cc1cc(C(C)C)c2c(c1O)C(=O)C1=C(O)[C@]3(O)C(=O)C(C(N)=O)=C(O)[C@@H](N(C)C)[C@@H]3C[C@@H]1C2 [G]	1 (≈ 1.85 µM)	0.06 (≈ 0.111 µM)	0.5 (≈ 0.927 µM)	0.5 (≈ 0.927 µM)	–	–	–
CN(C)[C@@H]1C(O)=C(C(N)=O)C(=O)[C@@]2(O)C(O)=C3C(=O)c4c(O)c(CNCCC(F)(F)F)cc(-c5ncccn5)c4C[C@H]3C[C@@H]12 [J]	1 (≈ 1.62 µM)	0.06 (≈ 0.0972 µM)	0.25 (≈ 0.405 µM)	0.5 (≈ 0.81 µM)	–	–	–
CN(Cc1ccccc1F)Cc1cc(N(C)C)c2c(c1O)C(=O)C1=C(O)[C@]3(O)C(=O)C(C(N)=O)=C(O)[C@@H](N(C)C)[C@@H]3C[C@@H]1C2 [K]	1 (≈ 1.64 µM)	0.25 (≈ 0.411 µM)	1 (≈ 1.64 µM)	0.5 (≈ 0.821 µM)	–	–	–
CN(CCC(F)(F)F)Cc1cc(N(C)C)c2c(c1O)C(=O)C1=C(O)[C@]3(O)C(=O)C(C(N)=O)=C(O)[C@@H](N(C)C)[C@@H]3C[C@@H]1C2 [L]	1 (≈ 1.68 µM)	0.75 (≈ 1.26 µM)	1 (≈ 1.68 µM)	0.5 (≈ 0.838 µM)	–	–	–
CCN(CCCC(F)(F)F)Cc1cc(N(C)C)c2c(c1O)C(=O)C1=C(O)[C@]3(O)C(=O)C(C(N)=O)=C(O)[C@@H](N(C)C)[C@@H]3C[C@@H]1C2 [N]	0.5 (≈ 0.8 µM)	0.13 (≈ 0.208 µM)	1 (≈ 1.6 µM)	1 (≈ 1.6 µM)	–	–	–
CN(C)[C@@H]1C(O)=C(C(N)=O)C(=O)[C@@]2(O)C(O)=C3C(=O)c4c(O)ccc(C(=O)CN5CCCCC5)c4C[C@H]3C[C@@H]12 [O]	–	–	–	–	0.06 (≈ 0.111 µM)	0.06 (≈ 0.111 µM)	IC50 ([2]; read-out: Peptidoglycan synthesis IC50): > 32 µg/mL; IC90 ([2]; read-out: Peptidoglycan synthesis IC90): > 32 µg/mL; macromolecular synthesis profile in words [3]: profile similar to class I compounds; IC50 ([3]; Staphylococcus aureus, read-out: Protein synthesis IC50): 0.33 µg/mL (≈ 0.612 µM); IC90 ([3]; Staphylococcus aureus, read-out: Protein synthesis IC90): 0.92 µg/mL (≈ 1.71 µM)
CN(C)[C@@H]1C(O)=C(C(N)=O)C(=O)[C@@]2(O)C(O)=C3C(=O)c4c(O)ccc(-c5cncc(CN6CCCCC6)c5)c4C[C@H]3C[C@@H]12 [P]	–	–	–	–	0.06 (≈ 0.102 µM)	0.06 (≈ 0.102 µM)	–
CC(C)N(C)Cc1ccc(-c2ccc(O)c3c2C[C@H]2C[C@H]4[C@H](N(C)C)C(O)=C(C(N)=O)C(=O)[C@@]4(O)C(O)=C2C3=O)o1 [Q]	–	–	–	–	0.06 (≈ 0.106 µM)	0.06 (≈ 0.106 µM)	–
C=CCN(C)Cc1cncc(-c2ccc(O)c3c2C[C@H]2C[C@H]4[C@@H](N(C)C)C(O)=C(C(N)=O)C(=O)[C@@]4(O)C(O)=C2C3=O)c1 [T]	–	–	–	–	0.06 (≈ 0.104 µM)	0.06 (≈ 0.104 µM)	–
CN(C)[C@@H]1C(O)=C(C(N)=O)C(=O)[C@@]2(O)C(O)=C3C(=O)c4c(O)ccc(CN5CCC(F)CC5)c4C[C@H]3C[C@@H]12 [U]	–	–	–	–	0.06 (≈ 0.113 µM)	0.06 (≈ 0.113 µM)	–
CC(C)NCc1ccc(-c2ccc(O)c3c2C[C@H]2C[C@H]4[C@H](N(C)C)C(O)=C(C(N)=O)C(=O)[C@@]4(O)C(O)=C2C3=O)cc1 [W]	–	–	–	–	0.06 (≈ 0.107 µM)	0.06 (≈ 0.107 µM)	–
COc1ccc(CN(C)C)c(-c2ccc(O)c3c2C[C@H]2C[C@H]4[C@H](N(C)C)C(O)=C(C(N)=O)C(=O)[C@@]4(O)C(O)=C2C3=O)c1 [X]	–	–	–	–	0.06 (≈ 0.104 µM)	0.06 (≈ 0.104 µM)	–
COCCNCc1ccc(-c2ccc(O)c3c2C[C@H]2C[C@H]4[C@H](N(C)C)C(O)=C(C(N)=O)C(=O)[C@@]4(O)C(O)=C2C3=O)cc1 [Y]	–	–	–	–	0.06 (≈ 0.104 µM)	0.06 (≈ 0.104 µM)	–
CN(C)[C@@H]1C(O)=C(C(N)=O)C(=O)[C@@]2(O)C(O)=C3C(=O)c4c(O)ccc(C#Cc5ccccn5)c4C[C@H]3C[C@@H]12 [Z]	–	–	–	0.5 (≈ 0.97 µM)	0.13 (≈ 0.252 µM)	–	MIC (S. pneumoniae 157E [4]): 0.06 µg/mL (≈ 0.116 µM)
